From US20190223450A1, “MICROALGAE EXTRACT FOR AGRICULTURAL USE” (priority 2015, published 2019)

Tests used:
zoospores = experiment: Inhibition of zoospores (mobility); design: species or system Plasmopara viticola
[1] = test system: pathogenesis-related (PR) proteins; experiment: Induced resistance in vine: resistance-linked metabolites and pathogenesis-related (PR) proteins; assay type: in vivo, vine plants; conditions: for production of metabolites linked to resistance phenomena / response: vine plants
Method: (§1) The efficacy of the treatments using the products listed above was assessed on the basis of the induced resistance using foliar discs and potted vine plants. The rate of induced resistance was determined on the basis of the increase in the content of pathogenesis-related (PR) proteins including: peroxidase, polyphenoloxidase, Beta 1,3-glucanase, phenylalanine ammonia-lyase, stilbene synthase, PR-1 protein and caffeoyl coenzyme A-3-O-methyltransferase.

Plasmopara viticola = experiment: Protection of vine foliar discs and potted vine plants against Plasmopara viticola (peronospora); assay type: in vivo; conditions: vine plants affected by peronospora
Method: The field tests were performed on vine plants affected by peronospora. The potential of certain biocontrol and plant extract products for protection against Plasmopara viticola (peronospora) was also assessed, since some chemical and natural substances can reduce the plants' susceptibility. In particular, comparisons were performed on the use of commercial products or experimental products: • EXPERIMENTAL PRODUCT 1 (EP1) yeast extract • EXPERIMENTAL PRODUCT 2 (EP2) plant extract • EXPERIMENTAL PRODUCT 3 (EP3) Aureobasidium pullulans • CANG extract of Solidago canadensis • P E N extract of mycelium of Penicillium crysogenum • LIN linoleic acid • BABA—chemical elicitors of 3-dl-β-aminobutyric acid • BTH—chemical elicitors of benzothiadiazole • CP—comparator product: extract of microalgae • MBGPT1—alginate extract of Phaeodactylum tricornutum obtained according to the method described above • chrysolaminarin from microalga
as §1

CC(N)CC(=O)O (racemic) [BABA, 3-dl-β-aminobutyric acid]
inhibition of the zoospores (mobility) (zoospores): unable to inhibit the zoospores
formation of necrotic spots and PR proteins ([1]; immediately after inoculation): caused the formation of necrotic spots and PR proteins immediately after inoculation

c1ccc2snnc2c1 [BTH, benzothiadiazole]
production of metabolites linked to resistance phenomena / response [1]: induced the production of a wide range of metabolites linked to resistance phenomena

CCCCC/C=C\C/C=C\CCCCCCCC(=O)O [LIN, linoleic acid]
protection (Plasmopara viticola): insignificant protection
production of metabolites linked to resistance phenomena / response [1]: induced the production of a wide range of metabolites linked to resistance phenomena
